Measurements as given in article PMC5218480 (PLoS ONE, 2017).

Tested on: MV-4-11 cells
Assay: Gene expression microarray analysis (Affymetrix PrimeView) and GSEA
Format: cell-based, human
Set-up: RFU PODN (11730768_x_at) / Fold change /veh PODN (11730768_x_at) / RFU LINC00158 (11744669_a_at) / Fold change /veh LINC00158 (11744669_a_at) / RFU DUSP10 (11751237_a_at) / Fold change /veh DUSP10 (11751237_a_at) / RFU ID3 (11757404_x_at) / Fold change /veh ID3 (11757404_x_at) / RFU PLEKHG5 (11737974_s_at) / Fold change /veh PLEKHG5 (11737974_s_at) / RFU LRRC4B (11730491_at) / Fold change /veh LRRC4B (11730491_at) / RFU GIMAP4 (11747438_a_at) / Fold change /veh GIMAP4 (11747438_a_at) / RFU KRT8 (11758183_x_at) / Fold change /veh KRT8 (11758183_x_at) / RFU CNN1 (11734310_a_at) / Fold change /veh CNN1 (11734310_a_at) / RFU VPS37D (11726825_at) / Fold change /veh VPS37D (11726825_at) / RFU C10orf10 (11716522_x_at) / Fold change /veh C10orf10 (11716522_x_at) / RFU KIR2DL2 /// KIR2DL4 /// KIR2DL5A /// KIR2DL5B /// KIR2DS1 /// KIR2DS2 /// KIR2DS3 /// KIR2DS4 /// KIR3DL3 /// KIR3DL3 /// KIR3DS1 (11738374_at) / Fold change /veh KIR2DL2 /// KIR2DL4 /// KIR2DL5A /// KIR2DL5B /// KIR2DS1 /// KIR2DS2 /// KIR2DS3 /// KIR2DS4 /// KIR3DL3 /// KIR3DL3 /// KIR3DS1 (11738374_at) / RFU C1QL1 (11718748_at) / Fold change /veh C1QL1 (11718748_at) / RFU TMPRSS4 (11747572_a_at) / Fold change /veh TMPRSS4 (11747572_a_at) / RFU HAMP (11756126_x_at) / Fold change /veh HAMP (11756126_x_at) / RFU RNFT2 (11725882_a_at) / Fold change /veh RNFT2 (11725882_a_at) / RFU NR4A2 (11747474_a_at) / Fold change /veh NR4A2 (11747474_a_at) / RFU ABCC12 (11746883_a_at) / Fold change /veh ABCC12 (11746883_a_at) / RFU TMEM136 (11760407_x_at) / Fold change /veh TMEM136 (11760407_x_at) / RFU CLDN22 /// WWC2 (11732394_at) / Fold change /veh CLDN22 /// WWC2 (11732394_at) / RFU HLA-DPB1 (11760878_x_at) / Fold change /veh HLA-DPB1 (11760878_x_at) / RFU SPINT1 (11716480_a_at) / Fold change /veh SPINT1 (11716480_a_at) / RFU GAP43 (11754022_s_at) / Fold change /veh GAP43 (11754022_s_at) / RFU A4GNT (11735810_at) / Fold change /veh A4GNT (11735810_at) / RFU PRB3 (11715151_x_at) / Fold change /veh PRB3 (11715151_x_at) / RFU TUBB4B (11761932_at) / Fold change /veh TUBB4B (11761932_at) / RFU CAPN14 (11732068_a_at) / Fold change /veh CAPN14 (11732068_a_at) / RFU TMCC2 (11721928_a_at) / Fold change /veh TMCC2 (11721928_a_at) / RFU IRGQ (11745062_a_at) / Fold change /veh IRGQ (11745062_a_at) / RFU FAM174B (11720279_a_at) / Fold change /veh FAM174B (11720279_a_at) / RFU TMPRSS4 (11748680_a_at) / Fold change /veh TMPRSS4 (11748680_a_at) / RFU FAM212B (11763350_a_at) / Fold change /veh FAM212B (11763350_a_at) / RFU PLEKHG5 (11743358_a_at) / Fold change /veh PLEKHG5 (11743358_a_at) / RFU ZSCAN30 (11745921_a_at) / Fold change /veh ZSCAN30 (11745921_a_at) / RFU CMKLR1 (11741424_a_at) / Fold change /veh CMKLR1 (11741424_a_at) / RFU LOC101060620 /// MAPK8IP1 (11723275_at) / Fold change /veh LOC101060620 /// MAPK8IP1 (11723275_at) / RFU SPTSSB (11747773_x_at) / Fold change /veh SPTSSB (11747773_x_at) / RFU PRSS12 (11739890_at) / Fold change /veh PRSS12 (11739890_at) / RFU BIN1 (11741810_x_at) / Fold change /veh BIN1 (11741810_x_at) / RFU WNT11 (11732464_a_at) / Fold change /veh WNT11 (11732464_a_at) / RFU C10orf10 (11716521_a_at) / Fold change /veh C10orf10 (11716521_a_at) / RFU C5orf56 (11738089_at) / Fold change /veh C5orf56 (11738089_at) / RFU CYB561 (11721691_x_at) / Fold change /veh CYB561 (11721691_x_at) / RFU ANKRD19P (11752326_a_at) / Fold change /veh ANKRD19P (11752326_a_at) / RFU OR2T12 /// OR2T33 /// OR2T8 (11738714_s_at) / Fold change /veh OR2T12 /// OR2T33 /// OR2T8 (11738714_s_at) / RFU VCAN (11748164_a_at) / Fold change /veh VCAN (11748164_a_at) / RFU JSRP1 (11732532_at) / Fold change /veh JSRP1 (11732532_at) / RFU KRTAP10-11 (11738290_x_at) / Fold change /veh KRTAP10-11 (11738290_x_at) / RFU MYO3A (11730013_a_at) / Fold change /veh MYO3A (11730013_a_at) / RFU EBF3 (11725865_a_at) / Fold change /veh EBF3 (11725865_a_at) / RFU CAMK2N1 (11719241_x_at) / Fold change /veh CAMK2N1 (11719241_x_at) / RFU C5orf56 (11738088_a_at) / Fold change /veh C5orf56 (11738088_a_at) / RFU OLFML3 (11715873_a_at) / Fold change /veh OLFML3 (11715873_a_at) / RFU LOC100653217 /// NTM (11731650_a_at) / Fold change /veh LOC100653217 /// NTM (11731650_a_at) / RFU MAPK11 (11762145_a_at) / Fold change /veh MAPK11 (11762145_a_at) / RFU FIZ1 (11724087_x_at) / Fold change /veh FIZ1 (11724087_x_at) / RFU OASL (11726364_x_at) / Fold change /veh OASL (11726364_x_at) / RFU SOX15 (11748057_x_at) / Fold change /veh SOX15 (11748057_x_at) / RFU CD79A (11719716_a_at) / Fold change /veh CD79A (11719716_a_at) / RFU HIST1H1D (11736915_at) / Fold change /veh HIST1H1D (11736915_at) / RFU CASKIN2 (11723855_a_at) / Fold change /veh CASKIN2 (11723855_a_at) / RFU LOC730098 (11760151_x_at) / Fold change /veh LOC730098 (11760151_x_at) / RFU OR4N2 (11742367_at) / Fold change /veh OR4N2 (11742367_at) / RFU PRRT2 (11749266_a_at) / Fold change /veh PRRT2 (11749266_a_at) / RFU SNX32 (11753110_a_at) / Fold change /veh SNX32 (11753110_a_at) / RFU CDHR5 (11726645_a_at) / Fold change /veh CDHR5 (11726645_a_at) / RFU RCAN1 (11760418_a_at) / Fold change /veh RCAN1 (11760418_a_at) / RFU FAM167A (11723789_a_at) / Fold change /veh FAM167A (11723789_a_at) / RFU FAM26E (11764081_at) / Fold change /veh FAM26E (11764081_at) / RFU ISYNA1 (11749810_s_at) / Fold change /veh ISYNA1 (11749810_s_at) / RFU ACY1 (11761880_at) / Fold change /veh ACY1 (11761880_at) / RFU 11764098_at / Fold change /veh 11764098_at / RFU SAMD14 (11745864_x_at) / Fold change /veh SAMD14 (11745864_x_at) / RFU NPB (11741838_a_at) / Fold change /veh NPB (11741838_a_at) / RFU TMPRSS6 (11731388_a_at) / Fold change /veh TMPRSS6 (11731388_a_at) / RFU KRTAP10-2 (11738614_at) / Fold change /veh KRTAP10-2 (11738614_at) / RFU ARHGAP8 /// PRR5-ARHGAP8 (11727945_x_at) / Fold change /veh ARHGAP8 /// PRR5-ARHGAP8 (11727945_x_at) / RFU KRTAP5-7 /// NADSYN1 (11734609_at) / Fold change /veh KRTAP5-7 /// NADSYN1 (11734609_at) / RFU RASL12 (11751679_a_at) / Fold change /veh RASL12 (11751679_a_at) / RFU CDKN2B (11736163_a_at) / Fold change /veh CDKN2B (11736163_a_at) / RFU PRF1 (11729649_at) / Fold change /veh PRF1 (11729649_at) / RFU, ZNF638 /// ZNF638-IT1 / Fold change vs veh, ZNF638 /// ZNF638-IT1 / RFU, PANK3 / Fold change vs veh, PANK3 / RFU, SH3YL1 / Fold change vs veh, SH3YL1 / RFU, ZEB2 / Fold change vs veh, ZEB2 / RFU, NRIP1 / Fold change vs veh, NRIP1 / RFU, PTTG1IP / Fold change vs veh, PTTG1IP / RFU, CAPN2 / Fold change vs veh, CAPN2 / RFU, MED14 / Fold change vs veh, MED14 / RFU, SNORA58 / Fold change vs veh, SNORA58 / RFU, C1orf63 / Fold change vs veh, C1orf63 / RFU, LRRFIP1 / Fold change vs veh, LRRFIP1 / RFU, NDUFAF7 / Fold change vs veh, NDUFAF7 / RFU, SLC12A2 / Fold change vs veh, SLC12A2 / RFU, IBTK / Fold change vs veh, IBTK / RFU, ESF1 / Fold change vs veh, ESF1 / Fold change vs veh, TMEM50B / RFU, TAOK1 / Fold change vs veh, TAOK1 / RFU, ACBD3 / Fold change vs veh, ACBD3 / RFU, TMA16 / Fold change vs veh, TMA16 / RFU, RWDD3 / Fold change vs veh, RWDD3 / RFU, BCAT1 / Fold change vs veh, BCAT1 / RFU, EDEM3 / Fold change vs veh, EDEM3 / RFU, TMEM33 / Fold change vs veh, TMEM33 / RFU, WDR75 / Fold change vs veh, WDR75 / RFU, AHCTF1 / Fold change vs veh, AHCTF1 / RFU, TFRC / Fold change vs veh, TFRC / RFU, ZDHHC17 / Fold change vs veh, ZDHHC17 / RFU, NOM1 / Fold change vs veh, NOM1 / RFU, ARL8B / Fold change vs veh, ARL8B / RFU, ZBTB11 / Fold change vs veh, ZBTB11 / RFU, TAMM41 / Fold change vs veh, TAMM41 / RFU, KIAA1704 /// LOC100996395 / Fold change vs veh, KIAA1704 /// LOC100996395 / RFU, ING1 / Fold change vs veh, ING1 / RFU, TRMT61B / Fold change vs veh, TRMT61B / RFU, FUBP3 / Fold change vs veh, FUBP3 / RFU, TP53 / Fold change vs veh, TP53 / RFU, TNKS2 / Fold change vs veh, TNKS2 / RFU, ZFP14 / Fold change vs veh, ZFP14 / RFU, ACTR2 / Fold change vs veh, ACTR2 / RFU, PPP3R1 / Fold change vs veh, PPP3R1 / RFU, PIK3R1 / Fold change vs veh, PIK3R1 / RFU, HNRNPA1 / Fold change vs veh, HNRNPA1 / RFU, RNF170 / Fold change vs veh, RNF170 / RFU, ZNF28 / Fold change vs veh, ZNF28 / RFU, RNGTT / Fold change vs veh, RNGTT / RFU, OGT / Fold change vs veh, OGT / RFU, BRD1 / Fold change vs veh, BRD1 / RFU, MARS / Fold change vs veh, MARS / RFU, ZNF655 / Fold change vs veh, ZNF655 / RFU, FAHD1 / Fold change vs veh, FAHD1 / RFU, BDP1 / Fold change vs veh, BDP1 / RFU, LRRCC1 / Fold change vs veh, LRRCC1 / RFU, ARID1A / Fold change vs veh, ARID1A / RFU, ZNF146 / Fold change vs veh, ZNF146 / RFU, ZNF330 / Fold change vs veh, ZNF330 / RFU, GPN3 / Fold change vs veh, GPN3 / RFU, C9orf123 / Fold change vs veh, C9orf123 / RFU, N4BP2L2 / Fold change vs veh, N4BP2L2 / RFU, ARFIP1 / Fold change vs veh, ARFIP1 / RFU, FAM179B / Fold change vs veh, FAM179B / RFU, BCL10 / Fold change vs veh, BCL10 / RFU, UHRF1BP1L / Fold change vs veh, UHRF1BP1L / RFU, BET1 / Fold change vs veh, BET1 / RFU, CNOT2 / Fold change vs veh, CNOT2 / RFU, ZNF268 / Fold change vs veh, ZNF268 / Fold change vs veh, ZNF507 / RFU, DGCR2 / Fold change vs veh, DGCR2 / RFU, WDSUB1 / Fold change vs veh, WDSUB1 / Fold change vs veh, HSP90B1 /// MIR3652 / RFU, ADSS / Fold change vs veh, ADSS / RFU, GK / Fold change vs veh, GK / RFU, ZNF148 / Fold change vs veh, ZNF148 / RFU, TAF9 / Fold change vs veh, TAF9 / RFU, SLC1A5 / Fold change vs veh, SLC1A5 / RFU, SLMO2 / Fold change vs veh, SLMO2 / RFU, ABCC4 / Fold change vs veh, ABCC4 / RFU, LOC101060439 /// RAP1B / Fold change vs veh, LOC101060439 /// RAP1B / RFU, RFX7 / Fold change vs veh, RFX7 / RFU, GTPBP10 / Fold change vs veh, GTPBP10 / RFU, CNEP1R1 / Fold change vs veh, CNEP1R1 / RFU, BIVM-ERCC5 /// ERCC5 / Fold change vs veh, BIVM-ERCC5 /// ERCC5 / RFU, ILF3 / Fold change vs veh, ILF3 / RFU 11762660_at / Fold change /veh 11762660_at / RFU VCAN (11757783_s_at) / Fold change /veh VCAN (11757783_s_at) / RFU DDX43 (11728927_at) / Fold change /veh DDX43 (11728927_at) / RFU KRT8 (11758188_x_at) / Fold change /veh KRT8 (11758188_x_at) / RFU NKD1 (11759106_at) / Fold change /veh NKD1 (11759106_at) / RFU SRD5A1 (11742802_a_at) / Fold change /veh SRD5A1 (11742802_a_at) / RFU TPSAB1 /// TPSB2 (11721975_s_at) / Fold change /veh TPSAB1 /// TPSB2 (11721975_s_at) / RFU GSTM3 (11746129_a_at) / Fold change /veh GSTM3 (11746129_a_at) / RFU IL23R (11737362_x_at) / Fold change /veh IL23R (11737362_x_at) / RFU TMEM51 (11727254_a_at) / Fold change /veh TMEM51 (11727254_a_at) / RFU PIWIL2 (11732686_x_at) / Fold change /veh PIWIL2 (11732686_x_at) / RFU ORM1 (11744905_x_at) / Fold change /veh ORM1 (11744905_x_at) / RFU CCDC152 (11743942_at) / Fold change /veh CCDC152 (11743942_at) / RFU ECM1 (11717891_a_at) / Fold change /veh ECM1 (11717891_a_at) / RFU IL23R (11748794_a_at) / Fold change /veh IL23R (11748794_a_at) / RFU TNFAIP8L3 (11732012_x_at) / Fold change /veh TNFAIP8L3 (11732012_x_at) / RFU MBOAT4 (11741988_at) / Fold change /veh MBOAT4 (11741988_at) / RFU 11764193_at / Fold change /veh 11764193_at / RFU TMEM53 (11763286_at) / Fold change /veh TMEM53 (11763286_at) / RFU MAGEB2 (11727129_at) / Fold change /veh MAGEB2 (11727129_at) / RFU TMEM200A (11744735_a_at) / Fold change /veh TMEM200A (11744735_a_at) / RFU CCDC152 (11751479_a_at) / Fold change /veh CCDC152 (11751479_a_at) / RFU FAM211A (11726209_a_at) / Fold change /veh FAM211A (11726209_a_at) / RFU RGS16 (11746705_a_at) / Fold change /veh RGS16 (11746705_a_at) / RFU VCAN (11755009_s_at) / Fold change /veh VCAN (11755009_s_at) / RFU RHOB (11743442_s_at) / Fold change /veh RHOB (11743442_s_at) / RFU RGS16 (11720943_a_at) / Fold change /veh RGS16 (11720943_a_at) / RFU RGS16 (11720944_at) / Fold change /veh RGS16 (11720944_at) / RFU, VPS4B / Fold change vs veh, VPS4B / RFU, CREB1 / Fold change vs veh, CREB1 / RFU, DNAJC13 / Fold change vs veh, DNAJC13 / RFU, GNAQ / Fold change vs veh, GNAQ / RFU, CDK5R1 / Fold change vs veh, CDK5R1 / RFU, ZRANB3 / Fold change vs veh, ZRANB3 / RFU, CUL4A / Fold change vs veh, CUL4A / RFU, CCNY / Fold change vs veh, CCNY / RFU, UFL1 / Fold change vs veh, UFL1 / RFU, COG3 / Fold change vs veh, COG3 / RFU, DIAPH2 / Fold change vs veh, DIAPH2 / RFU, SKA2 / Fold change vs veh, SKA2 / RFU, AFF3 / Fold change vs veh, AFF3 / RFU, LMF1 / Fold change vs veh, LMF1 / RFU, IPO11 / Fold change vs veh, IPO11 / RFU, DFFB / Fold change vs veh, DFFB / RFU, FOXP1 / Fold change vs veh, FOXP1 / RFU, CARD8 / Fold change vs veh, CARD8 / RFU, STRN3 / Fold change vs veh, STRN3 / RFU, ADK / Fold change vs veh, ADK / RFU, RASSF2 / Fold change vs veh, RASSF2 / RFU, WIPF1 / Fold change vs veh, WIPF1 / RFU, LARP1B / Fold change vs veh, LARP1B / RFU, RASA1 / Fold change vs veh, RASA1 / RFU, RB1 / Fold change vs veh, RB1 / RFU, PPFIA1 / Fold change vs veh, PPFIA1 / RFU, MAT2A / Fold change vs veh, MAT2A / RFU, CCT5 / Fold change vs veh, CCT5 / RFU, WDR92 / Fold change vs veh, WDR92 / RFU, CUX1 / Fold change vs veh, CUX1 / RFU, TTC7A / Fold change vs veh, TTC7A / RFU, TMEM135 / Fold change vs veh, TMEM135 / RFU, DEPTOR / Fold change vs veh, DEPTOR / RFU, CPM / Fold change vs veh, CPM / RFU, DNAJB6 / Fold change vs veh, DNAJB6 / RFU, CACNA2D3 / Fold change vs veh, CACNA2D3 / RFU, DTX4 / Fold change vs veh, DTX4 / RFU, TFCP2 / Fold change vs veh, TFCP2 / RFU, GMCL1 /// GMCL1P1 / Fold change vs veh, GMCL1 /// GMCL1P1 / RFU, AEBP2 / Fold change vs veh, AEBP2 / RFU, SNHG1 /// SNORD22 /// SNORD25 /// SNORD26 /// SNORD27 /// SNORD28 /// SNORD29 /// SNORD31 / Fold change vs veh, SNHG1 /// SNORD22 /// SNORD25 /// SNORD26 /// SNORD27 /// SNORD28 /// SNORD29 /// SNORD31 / Fold change (Aza/veh), C12orf56 (ProbeSet 11735607_a_at) / Fold change (ACY-1035/veh), C12orf56 (ProbeSet 11735607_a_at) / Fold change (Aza/veh), FGFR1OP (ProbeSet 11751329_s_at) / Fold change (ACY-1035/veh), FGFR1OP (ProbeSet 11751329_s_at) / Fold change (Aza/veh), VPS36 (ProbeSet 11739960_a_at) / Fold change (ACY-1035/veh), VPS36 (ProbeSet 11739960_a_at) / RFU SYPL1 (11715823_x_at) / Fold change /veh SYPL1 (11715823_x_at) / RFU IGFBP7 (11715501_s_at) / Fold change /veh IGFBP7 (11715501_s_at) / RFU REEP3 (11722064_at) / Fold change /veh REEP3 (11722064_at) / RFU IGLL1 (11728026_x_at) / Fold change /veh IGLL1 (11728026_x_at): dose or concentration left out as unconfirmed
Conditions: MV-4-11 cells, 48 hours

## Nc1ncn([C@@H]2O[C@H](CO)[C@@H](O)[C@H]2O)c(=O)n1 [azacitidine]
  Fold change /veh SOX15 (11748057_x_at): 1.06
